Patent publication US11142526B2, “Spirocycle compounds and methods of making and using same” (H. Lundbeck A/S, priority 2017, dated 2021)
Like-named read-outs stand apart in the source and are kept apart here.

What was measured:
MAGL [1] = target: MAGL (Mus musculus (Mouse), UniProt O35678); test: In vitro competitive activity-based protein profiling, mouse brain proteome; type: biochemical; conditions: for inhibition at 1 µM: mouse; for IC50: mouse brain
MAGL [2] = target: MAGL (Homo sapiens (Human), UniProt Q99685); test: In vitro competitive activity-based protein profiling (gel-based, FP-Rh or HT-01 probe); type: biochemical
Protocol: In Vitro Competitive Activity-Based Protein Profiling.
Proteomes (human prefrontal cortex or cell membrane fractions) (50 μL, 1.0 mg/mL total protein concentration) were preincubated with varying concentrations of inhibitors at 37° C. After 30 min, FP-Rh or HT-01 (1.0 μL, 50 μM in DMSO) was added and the mixture was incubated for another 30 min at room temperature. Reactions were quenched with SDS loading buffer (15 μL—4×) and run on SDS-PAGE.

[3] = human PC3, read-out: MAGL % Inhibition at 1 μM (human PC3)
[4] = human PFC (prefrontal cortex), read-out: MAGL % Inhibition at 1 μM (human PFC)
[5] = human PC3, read-out: MAGL Human PC3 (IC50)

Chain of MAGL (Mus musculus (Mouse), UniProt O35678) (O35678 whole entry): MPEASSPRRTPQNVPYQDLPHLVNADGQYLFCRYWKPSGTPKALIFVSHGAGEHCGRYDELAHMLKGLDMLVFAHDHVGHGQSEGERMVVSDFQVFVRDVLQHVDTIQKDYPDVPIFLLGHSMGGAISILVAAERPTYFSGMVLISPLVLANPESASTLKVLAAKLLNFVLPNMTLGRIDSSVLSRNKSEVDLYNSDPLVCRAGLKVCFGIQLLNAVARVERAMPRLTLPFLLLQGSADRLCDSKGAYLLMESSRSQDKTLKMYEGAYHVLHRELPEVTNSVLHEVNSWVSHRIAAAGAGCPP
Chain of MAGL (Homo sapiens (Human), UniProt Q99685) (Q99685 whole entry): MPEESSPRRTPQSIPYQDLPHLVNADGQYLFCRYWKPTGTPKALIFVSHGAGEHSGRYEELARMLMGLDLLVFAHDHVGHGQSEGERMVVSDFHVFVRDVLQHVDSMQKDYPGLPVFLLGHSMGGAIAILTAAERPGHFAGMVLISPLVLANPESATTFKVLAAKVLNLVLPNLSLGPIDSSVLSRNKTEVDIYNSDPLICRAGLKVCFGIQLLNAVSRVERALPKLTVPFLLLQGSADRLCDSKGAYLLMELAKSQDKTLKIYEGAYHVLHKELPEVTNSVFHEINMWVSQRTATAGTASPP

Structure (SMILES)	inhibition at 1 µM (MAGL [1]) [%]	inhibition at 1 µM (MAGL [2]; [3]) [%]	inhibition at 1 µM (MAGL [2]; [4]) [%]	IC50 (MAGL [1]) [nM]	IC50 (MAGL [2]; [5]) [nM]	IC50 (MAGL [2]; human PFC (prefrontal cortex), read-out: MAGL Human PFC (IC50)) [nM]
O=C(O)CN1CCn2cc(C(=O)N3CCCC34CCN(C(=O)OC(C(F)(F)F)C(F)(F)F)CC4)nc2C1 [Example 158, 2-(2-(8-(((1,1,1,3,3,3-Hexafluoropropan-2-yl)oxy)carbonyl)-1,8-diazaspiro[4.5]decane-1-carbonyl)-5,6-dihydroimidazo[1,2-a]pyrazin-7(8H)-yl) acetic acid]	25 to 75	> 75	> 75	–	–	–
O=C(OC(C(F)(F)F)C(F)(F)F)N1CCC2(CCCN2Cc2ccc3cccc(Cl)c3n2)CC1 [Example 57, 1,1,1,3,3,3-Hexafluoropropan-2-yl 1-((8-chloroquinolin-2-yl)methyl)-1,8-diazaspiro[4.5] decane-8-carboxylate]	> 75	–	–	< 100	< 100	–
CN1CCN(c2ncncc2C(=O)N2CCCC23CCN(C(=O)OC(C(F)(F)F)C(F)(F)F)CC3)CC1 [Example 136, 1,1,1,3,3,3-Hexafluoropropan-2-yl 1-(4-(4-methylpiperazin-1-yl)pyrimidine-5-carbonyl)-1,8-diazaspiro [4.5]decane-8-carboxylate]	< 25	–	25 to 75	–	–	–
O=C(OC(C(F)(F)F)C(F)(F)F)N1CCC2(CCCN2C(=O)c2cc(N3CCCC3)nc(Cl)n2)CC1 [Example 119, 1,1,1,3,3,3-Hexafluoropropan-2-yl 1-(2-chloro-6-(pyrrolidin-1-yl)pyrimidine-4-carbonyl)-1,8-diazaspiro [4.5]decane-8-carboxylate]	> 75	–	> 75	–	< 100	< 100
O=C(OC(C(F)(F)F)C(F)(F)F)N1CCC2(CCCN2C(=O)c2ccn(-c3ccc(Cl)cc3)n2)CC1 [Example 92, 1,1,1,3,3,3-Hexafluoropropan-2-yl 1-(1-(4-chlorophenyl)-1H-pyrazole-3-carbonyl)-1,8-diazaspiro[4.5] decane-8-carboxylate]	> 75	–	–	< 100	< 100	–
Cc1nc2ccccn2c1C(=O)N1CCCC12CCN(C(=O)OC(C(F)(F)F)C(F)(F)F)CC2 [Example 134, 1,1,1,3,3,3-Hexafluoropropan-2-yl 1-(2-methyl-imidazo[1,2-a]pyridine-3-carbonyl)-1,8-diazaspiro[4.5] decane-8-carboxylate]	> 75	–	> 75	–	< 100	–
CC1(NC(=O)c2nnc3n2CCN(C2CCC2)C3)CCN(C(=O)OC(C(F)(F)F)C(F)(F)F)CC1 [Example 205, 1,1,1,3,3,3-Hexafluoropropan-2-yl 4-(7-cyclobutyl-5,6,7,8-tetrahydro-[1,2,4]triazolo[4,3-a]pyrazine-3-carboxamido)-4-methylpiperidine-1-carboxylate]	> 75	> 75	> 75	–	< 100	–
O=C(OC(C(F)(F)F)C(F)(F)F)N1CCC2(CCCN2C(=O)c2cnn3ccc(Cl)nc23)CC1 [Example 145, 1,1,1,3,3,3-Hexafluoropropan-2-yl 1-(5-chloropyrazolo[1,5-a]pyrimidine-3-carbonyl)-1,8-diazaspiro[4.5] decane-8-carboxylate]	> 75	> 75	> 75	–	< 100	–
O=C(OC(C(F)(F)F)C(F)(F)F)N1CCC2(CCCN2C(=O)c2cn3ccccc3n2)CC1 [Example 69, 1,1,1,3,3,3-Hexafluoropropan-2-yl 1-(imidazo[1,2-a]pyridine-2-carbonyl)-1,8-diazaspiro[4.5] decane-8-carboxylate]	> 75	–	–	< 100	< 100	–
O=C(OC(C(F)(F)F)C(F)(F)F)N1CCC2(CCCN2C(=O)Cc2ncccn2)CC1 [Example 195, 1,1,1,3,3,3-Hexafluoropropan-2-yl 1-(2-(pyrimidin-2-yl)acetyl)-1,8-diazaspiro[4.5] decane-8-carboxylate]	< 25	> 75	> 75	–	–	–
CC1(NC(=O)c2cn3c(n2)CN(C(=O)C2(F)CC2)CC3)CCN(C(=O)OC(C(F)(F)F)C(F)(F)F)CC1 [Example 192, 1,1,1,3,3,3-Hexafluoropropan-2-yl 4-(7-(1-fluorocyclopropane-1-carbonyl)-5,6,7,8-tetrahydroimidazo[1,2-a]pyrazine-2-carboxamido)-4-methylpiperidine-1-carboxylate]	> 75	> 75	–	–	< 100	–
Cc1nn(C)c(C(=O)N2CCCC23CCN(C(=O)OC(C(F)(F)F)C(F)(F)F)CC3)c1C#N [Example 19, 1,1,1,3,3,3-hexafluoropropan-2-yl 1-(4-cyano-1,3-dimethyl-1H-pyrazole-5-carbonyl)-1,8-diazaspiro[4.5]decane-8-carboxylate]	> 75	–	> 75	–	–	–
O=C(OC(C(F)(F)F)C(F)(F)F)N1CCC2(CCCN2C(=O)c2nc3ccccc3s2)CC1 [Example 75, 1,1,1,3,3,3-Hexafluoropropan-2-yl 1-(benzo[d]thiazole-2-carbonyl)-1,8-diazaspiro[4.5] decane-8-carboxylate]	> 75	–	–	< 100	< 100	–
O=C(OC(C(F)(F)F)C(F)(F)F)N1CCC2(CCCN2C(=O)c2cc3nc(C4CC4)cc(C(F)F)n3n2)CC1 [Example 167, 1.1,1,3,3,3-Hexafluoropropan-2-yl 1-(5-cyclopropyl-7-(difluoromethyl)pyrazolo[1,5-a]pyrimidine-2-carbonyl)-1,8-diazaspiro[4.5] decane-8-carboxylate]	> 75	> 75	> 75	–	–	–
CN(C(=O)c1nnc2n1CCNC2)C1(C)CCN(C(=O)OC(C(F)(F)F)C(F)(F)F)CC1 [Example 210, 1,1,1,3,3,3-Hexafluoropropan-2-yl 4-methyl-4-(N-methyl-5,6,7,8-tetrahydro-[1,2,4]triazolo [4,3-a]pyrazine-3-carboxamido) piperidine-1-carboxylate]	25 to 75	25 to 75	> 75	–	–	–
CC(C)n1cc(CN2CCC3(CCN(C(=O)OC(C(F)(F)F)C(F)(F)F)CC3)C2)c(-c2cccc(C(=O)O)c2)n1 [Example 113, 3-(4-((8-(((1,1,1,3,3,3-Hexafluoropropan-2-yl)oxy)carbonyl)-2,8-diazaspiro[4.5]decan-2-yl)methyl)-1-isopropyl-1H-pyrazol-3-yl) benzoic acid]	25 to 75	–	25 to 75	–	–	–
O=C(OC(C(F)(F)F)C(F)(F)F)N1CCC2(CCCN2C(=O)c2cn3nc(Cl)ccc3n2)CC1 [Example 163, 1,1,1,3,3,3-Hexafluoropropan-2-yl 1-(6-chloroimidazo[1,2-b]pyridazine-2-carbonyl)-1,8-diazaspiro[4.5] decane-8-carboxylate]	> 75	> 75	–	–	–	–
O=C(OC(C(F)(F)F)C(F)(F)F)N1CCC2(CCCN2C(=O)c2cc3nccc(C(F)(F)F)n3n2)CC1 [Example 164, 1,1,1,3,3,3-Hexafluoropropan-2-yl 1-(7-(trifluoromethyl)pyrazolo[1,5-a]pyrimidine-2-carbonyl)-1,8-diazaspiro[4.5] decane-8-carboxylate]	> 75	> 75	> 75	–	–	–
COCCN(C(=O)C1(c2ncccn2)CC1)C1(C)CCN(C(=O)OC(C(F)(F)F)C(F)(F)F)CC1 [Example 212, 1,1,1,3,3,3-hexafluoropropan-2-yl 4-(N-(2-methoxyethyl)-1-(pyrimidin-2-yl)cyclopropane-1-carboxamido)-4-methylpiperidine-1-carboxylate]	> 75	> 75	> 75	–	–	–
O=C(OC(C(F)(F)F)C(F)(F)F)N1CCC2(CCCN2C(=O)c2cc3nccc(C4CC4)n3n2)CC1 [Example 165, 1,1,1,3,3,3-Hexafluoropropan-2-yl 1-(7-cyclopropylpyrazolo [1,5-a]pyrimidine-2-carbonyl)-1,8-diazaspiro[4.5] decane-8-carboxylate]	> 75	> 75	> 75	–	–	–
O=C(OC(C(F)(F)F)C(F)(F)F)N1CCC2(CCCN2C(=O)c2nn3cccnc3c2Cl)CC1 [Example 157, 1,1,1,3,3,3-Hexafluoropropan-2-yl 1-(3-chloropyrazolo[1,5-a]pyrimidine-2-carbonyl)-1,8-diazaspiro[4.5] decane-8-carboxylate]	> 75	> 75	> 75	–	–	–
Cc1ncncc1C(=O)N1CCCC12CCN(C(=O)OC(C(F)(F)F)C(F)(F)F)CC2 [Example 127, 1,1,1,3,3,3-Hexafluoropropan-2-yl 1-(4-methyl-pyrimidine-5-carbonyl)-1,8-diazaspiro[4.5] decane-8-carboxylate]	< 25	–	25 to 75	–	–	–
Cc1c(C(=O)N2CCCC23CCN(C(=O)OC(C(F)(F)F)C(F)(F)F)CC3)c(Cl)nn1C [Example 125, 1,1,1,3,3,3-Hexafluoropropan-2-yl 1-(3-chloro-1,5-dimethyl-1H-pyrazole-4-carbonyl)-1,8-diazaspiro[4.5] decane-8-carboxylate]	> 75	–	> 75	–	< 100	–
Cc1cccnc1C1(C(=O)N2CCCC23CCN(C(=O)OC(C(F)(F)F)C(F)(F)F)CC3)CC1 [Example 30, 1,1,1,3,3,3-Hexafluoropropan-2-yl 1-(1-(3-methylpyridin-2-yl)cyclopropane-1-carbonyl)-1,8-diazaspiro[4.5]decane-8-carboxylate]	> 75	> 75	> 75	–	–	–
